{"source": "patent US7951530B2", "about": "“Cyclic maltosylmaltose, cyclic maltosymaltose-forming enzyme, their preparation and uses” (Kabushiki Kaisha Hayashibara Seibutsu Kagaku Kenkyujo, priority 2003, dated 2011)", "key": {"[1]": {"tested_on": "mice", "assay": "Acute toxicity test", "assay_type": "in vivo", "description": "By using mice, CMM obtained by the method in Experiment 14 was orally administrated to the mice for its acute toxicity test. […] Though not so accurate, the value of LD50 of CMM was 5 g/kg-mouse weight or higher."}, "[2]": {"assay": "pH stability of CMM", "assay_type": "physicochemical", "settings": "4% (w/v) CMM, 100° C. for 24 hours", "procedure": "Eight milliliters of each solution was put in a glass tube, sealed and then heated at 100° C. for 24 hours. After cooling the solution, the degree of coloring and the purity of CMM were measured in the same manner in Experiment 17."}, "[3]": {"assay": "Amino-carbonyl reaction with glycine", "assay_type": "physicochemical", "settings": "[…] (w/v) saccharide, 0.5% (w/v) glycine, pH 8.0, 100° C.", "procedure": "(§1) As a control, an aqueous solution containing maltose and glycine was prepared in the same manner using maltose except for the powdery hydrous crystalline CMM. Four milliliters each of the solution was put in a glass tube, sealed and then heated at 100° C. for 30, 60, or 90 min. After cooling the solutions, the degrees of coloring of the solutions were measured to estimate the degree of amino-carbonyl reaction. The degree of coloring was defined as an absorbance at 480 nm using a 1 cm-cell."}, "[4]": {"tested_on": "rat cecal contents", "assay": "Test for fermentability by rat cecal contents", "assay_type": "in vitro ADME, Wister-rat", "procedure": "According to the method of Oku et al., described in Journal of Nutritional Science and Vitaminology, vol. […] The cecal contents was collected under an anaerobic condition by killing a Wister-rat under anesthesia and suspended into 4-folds by volume of 0.1 M sodium bicarbonate aqueous solution, and then used for the test. CMM was added to the cecal contents by about 7% (w/w) of the weight of the cecal contents. The amounts of CMM at just after mixing and after 12 hours were determined by gas-chromatography. […] About 92% of CMM was not fermented and remained."}, "[5]": {"assay": "Reducing power by the Somogyi-Nelson method", "assay_type": "physicochemical", "description": "It was concluded that the saccharide was a non-reducing saccharide substantially."}, "[6]": {"assay": "Clathrating action of CMM", "assay_type": "physicochemical", "settings": "for strength of clathrating activity in comparison with branched cyclodextrin: on a weight basis", "description": "One hundred grams of the aqueous solution was admixed with 1.2 g of methanol, 1.7 g of ethanol, or 2.2 g of acetic acid as flavor components for allowing CMM to clathrate the flavor components. Successively, each solution was filtrated, and the resulting filtrate was freeze-dried to remove unclathrated flavor component. As a control, “ISOELITE P”, a mixture of branched cyclodextrins commercialized by Maruha Corporation, Tokyo, Japan, which has been known to have a clathrating activity, was tested by the same procedure. In order to measure the amount of flavor component clathrated in the freeze-dried powder, 1 g of each freeze-dried powder was dissolved in 5 ml of water and admixed with 5 ml of diethylether to extract the flavor component, and the extraction was repeated once more. The amount of the extracted flavor component in diethylether was measured by gas-chromatography."}, "[7]": {"assay": "Amino-carbonyl reaction with polypeptone", "assay_type": "physicochemical", "settings": "5% (w/v) saccharide, 5% (w/v) polypeptone, 120° C., blank subtracted", "procedure": "as §1, with “polypeptone” for “glycine”, “120°” for “100°”, “reaction. As a blank test, a solution containing polypeptone only was heated in the same manner.” for “reaction.”, “cm-cell after subtracting the absorbance of the blank test.” for “cm-cell.”"}, "[8]": {"tested_on": "Small intestinal enzymes", "source_text": "(§2) 43, 23-29 (1990), the digestibility of CMM by salivary α-amylase, artificial gastric juice, pancreas amylase, and small intestinal enzymes were investigated using the powdery hydrous crystalline CMM, obtained by the method in Experiment 14."}, "[9]": {"tested_on": "Pancreas α-amylase", "source_text": "as §2"}, "[10]": {"assay": "Concentration of CMM in saturated aqueous solution", "assay_type": "physicochemical", "settings": "25° C.", "procedure": "Successively, the glass vessel was sealed, and the suspension was stirred two days with keeping the temperature at 25° C. to give a saturated solution. After removing the solid CMM by filtrating the saturated solution, the moisture content of the filtrate was measured by the drying loss method to determine the concentration of CMM in saturated solution."}, "[11]": {"assay": "Thermal stability of CMM", "assay_type": "physicochemical", "settings": "7% (w/v) CMM, 120° C.; for Purity (%): HPLC", "procedure": "A powdery hydrous crystalline CMM was dissolved in water for preparing an aqueous solution containing 7% (w/v) of CMM. Eight milliliters each of the resulting solution was pored into a glass tube, sealed closely, and then heated at 120° C. for 30 to 90 min. After cooling the solution, the degree of coloring of the solution was measured. Further, the purity of CMM in the solution was measured by HPLC. The degree of coloring was defined as an absorbance at 480 nm using a 1 cm-cell."}}}
{"smiles": "OC[C@H]1O[C@@H]2OC[C@H]3O[C@H](O[C@H]4[C@H](O)[C@@H](O)[C@@H](OC[C@H]5O[C@H](O[C@H]1[C@H](O)[C@H]2O)[C@H](O)[C@@H](O)[C@@H]5O)O[C@@H]4CO)[C@H](O)[C@@H](O)[C@@H]3O", "note": "[CMM, cyclo{>6)-α-D-glucopyranosyl-(1>4)-α-D-glucopyranosyl-(1>6)-α-D-glucopyranosyl-(1>4)-α-D-glucopyranosyl-(1>}]", "values": [{"measurement": "mortality", "setting": "[1]; oral administration at the highest possible dose", "value": "no mouse died"}, {"measurement": "LD50", "setting": "[1]; oral administration, mice, though not so accurate", "value": "≥ 5", "unit": "g/kg-mouse weight"}, {"measurement": "Degree of coloring (A480 nm)", "setting": "[2]; pH 2.0, Acetate buffer", "value": 0}, {"measurement": "Purity (%)", "setting": "[2]; pH 2.0, Acetate buffer", "value": 93, "unit": "%"}, {"measurement": "Degree of coloring (A480 nm)", "setting": "[2]; pH 3.0, Acetate buffer", "value": 0}, {"measurement": "Purity (%)", "setting": "[2]; pH 3.0, Acetate buffer", "value": 100, "unit": "%"}, {"measurement": "Degree of coloring (A480 nm)", "setting": "[2]; pH 4.0, Acetate buffer", "value": 0}, {"measurement": "Purity (%)", "setting": "[2]; pH 4.0, Acetate buffer", "value": 100, "unit": "%"}, {"measurement": "Degree of coloring (A480 nm)", "setting": "[2]; pH 5.0, Acetate buffer", "value": 0}, {"measurement": "Purity (%)", "setting": "[2]; pH 5.0, Acetate buffer", "value": 100, "unit": "%"}, {"measurement": "Degree of coloring (A480 nm)", "setting": "[2]; pH 6.0, Tris-HCl buffer", "value": 0}, {"measurement": "Purity (%)", "setting": "[2]; pH 6.0, Tris-HCl buffer", "value": 100, "unit": "%"}, {"measurement": "Degree of coloring (A480 nm)", "setting": "[2]; pH 7.0, Tris-HCl buffer", "value": 0}, {"measurement": "Purity (%)", "setting": "[2]; pH 7.0, Tris-HCl buffer", "value": 100, "unit": "%"}, {"measurement": "Degree of coloring (A480 nm)", "setting": "[2]; pH 8.0, Tris-HCl buffer", "value": 0}, {"measurement": "Purity (%)", "setting": "[2]; pH 8.0, Tris-HCl buffer", "value": 100, "unit": "%"}, {"measurement": "Degree of coloring (A480 nm)", "setting": "[2]; pH 9.0, Ammonium buffer", "value": 0}, {"measurement": "Purity (%)", "setting": "[2]; pH 9.0, Ammonium buffer", "value": 100, "unit": "%"}, {"measurement": "Degree of coloring (A480 nm)", "setting": "[3]; heating time 0 min", "value": 0.00}, {"measurement": "Degree of coloring (A480 nm)", "setting": "[3]; heating time 30 min", "value": 0.00}, {"measurement": "Degree of coloring (A480 nm)", "setting": "[3]; heating time 60 min", "value": 0.00}, {"measurement": "Degree of coloring (A480 nm)", "setting": "[3]; heating time 90 min", "value": 0.00}, {"measurement": "CMM not fermented and remained", "setting": "[4]; after 12 hours", "value": "About 92%"}, {"measurement": "concentration of CMM in the cecal contents", "setting": "[4]; after 12 hours", "value": 63.0, "unit": "mg/g-cecal contents"}, {"measurement": "concentration of CMM in the cecal contents", "setting": "[4]; just after adding", "value": 68.5, "unit": "mg/g-cecal contents"}, {"measurement": "reducing power", "setting": "[5]", "value": "less than the measurable limit"}, {"measurement": "strength of clathrating activity in comparison with branched cyclodextrin", "setting": "[6]; acetic acid", "value": "~0.8", "unit": "fold"}, {"measurement": "strength of clathrating activity in comparison with branched cyclodextrin", "setting": "[6]; ethanol", "value": "~0.5", "unit": "fold"}, {"measurement": "Amount of flavor component clathrated (mg/g-freeze-dried powder)", "setting": "[6]; flavor component Acetic acid", "value": 30.55, "unit": "mg/g-freeze-dried powder"}, {"measurement": "Amount of flavor component clathrated (mg/g-freeze-dried powder)", "setting": "[6]; flavor component Ethanol", "value": 4.20, "unit": "mg/g-freeze-dried powder"}, {"measurement": "Amount of flavor component clathrated (mg/g-freeze-dried powder)", "setting": "[6]; flavor component Methanol", "value": 4.30, "unit": "mg/g-freeze-dried powder"}, {"measurement": "strength of clathrating activity in comparison with branched cyclodextrin", "setting": "[6]; methanol", "value": "about 1.3 folds"}, {"measurement": "Degree of coloring (A480 nm)", "setting": "[7]; heating time 0 min", "value": 0.00}, {"measurement": "Degree of coloring (A480 nm)", "setting": "[7]; heating time 30 min", "value": 0.00}, {"measurement": "Degree of coloring (A480 nm)", "setting": "[7]; heating time 60 min", "value": 0.00}, {"measurement": "Degree of coloring (A480 nm)", "setting": "[7]; heating time 90 min", "value": 0.00}, {"measurement": "Degradation rate (%)", "setting": "[8]", "value": 0, "unit": "%"}, {"measurement": "Degradation rate (%)", "setting": "[9]", "value": 0, "unit": "%"}, {"measurement": "saturated concentration of CMM to water", "setting": "[10]", "value": "about 8.0 % (w/w)"}, {"measurement": "Degree of coloring (A480 nm)", "setting": "[11]; heating time 0 min", "value": 0}, {"measurement": "Purity (%)", "setting": "[11]; heating time 0 min", "value": 100, "unit": "%"}, {"measurement": "Degree of coloring (A480 nm)", "setting": "[11]; heating time 30 min", "value": 0}, {"measurement": "Purity (%)", "setting": "[11]; heating time 30 min", "value": 100, "unit": "%"}, {"measurement": "Degree of coloring (A480 nm)", "setting": "[11]; heating time 60 min", "value": 0}, {"measurement": "Purity (%)", "setting": "[11]; heating time 60 min", "value": 100, "unit": "%"}, {"measurement": "Degree of coloring (A480 nm)", "setting": "[11]; heating time 90 min", "value": 0}, {"measurement": "Purity (%)", "setting": "[11]; heating time 90 min", "value": 100, "unit": "%"}]}
